Like-named read-outs stand apart in the source and are kept apart here. Marks after values point to notes of the source that are not given here.
Assays:
[1] = test system: peritoneal macrophages; assay: NBT reduction assay in peritoneal macrophages, cyclophosphamide-induced immunosuppression (Example II); type: in vivo, Swiss albino mice; details: for OD (515 nm), NBT reduction assay in peritoneal macrophages: Mean ± SD, n = 6; for improvement in NBT reduction capacity: 10 mg/kg body weight p.o., in comparison with cyclophosphamide treated mice
Experimental: (§1) The mice were acclimatized for one week in the laboratory conditions, before being used in the experiment. All experiments were conducted between 10.00 hr and 14.00 hr. Principles of laboratory animal care (NIH publication no. 85-23, revised 1985) were followed.
(§2) All test compounds (DBPs and DBP glycosides) were suspended in 0.3% of CMC (Carboxymethyl Cellulose) solutions of distilled water and were administered orally for 7 days by using an intubation canula. The volume of dose was 100 μl/10 g body weight. Cyclophosphamide was dissolved in distilled water and was injected (250 mg/kg, i.p.) on day one and volume of dose was 100 μl/10 g body weight. Control animals received equivalent volume of the vehicles CMC (0.3%) solutions only.
On day seven all the animals were sacrificed under ether anesthesia and peritoneal macrophages were lavaged using ice cold phosphate buffer saline (PBS: 0.15M NaCl pH-7.4). After centrifugation (3000 rpm×10 min) at 4° C. the pellet was re-suspended in PBS and cell viability was confirmed by trypan blue exclusion method. (Bala A, Haldar P K, Kar B, Naskar S and Mazumder U K, “Carbon tetrachloride: A hepatotoxin causes oxidative stress in murine peritoneal macrophage and peripheral blood lymphocyte cells” Immunopharmacol. and Immunotoxicol. 34(1): 157-162 (2012)).
Preparation of NBT solution: 0.2% NBT (nitroblue tetrazolium) in PB (Phosphate Buffer, pH 7.4), 5% dextrose and HBSS (Hank's balanced salt solution). The three solutions were mixed in 6:2:4 ratios. (Saxena A K, Singh K P, Srivastava S N, Shukla L J and Shanker R., “Immunomodulating effects of caffeine in rodents” Ind J Exptl Biol. 22: 298-301 (1984)).
Method: 0.5 ml of NBT solution was added to 0.5 ml of peritoneal macrophages (1×10^6 cells/ml) in a micro-centrifuge tube. This mixture was incubated at 37° C. for 45 minutes. The cell suspension was centrifuged at 1500 rpm for 10 minutes. Supernatant was discarded and pellet was re-suspended in 2 ml of DMSO. The tubes were kept in a boiling water bath for 10 minutes. The tubes were again centrifuged at 1500 rpm for 10 minutes. The supernatant was collected, and absorbance was measured at 515 nm.

[2] = test system: splenocytes; assay: Cell viability of splenocytes, trypan blue exclusion, cyclophosphamide-induced immunosuppression (Example II); type: in vivo, Swiss albino mice; details: for % Cell Viability of splenocytes: Mean ± SD, n = 6
Experimental: as §1, §2
Spleen was collected. Single cell suspension was prepared by mincing and tapping the spleen fragments on stainless steel 200-mesh in ice cold phosphate buffer saline (PBS: 0.15M NaCl pH 7.4). Cell suspension was centrifuged at 2000 rpm for 10 minutes. The pellet was re-suspended in PBS and cell viability was confirmed by trypan blue exclusion method.

[3] = test system: Swiss albino mice; assay: Cyclophosphamide-induced immunosuppression in mice, overall conclusion (Example II); type: in vivo; details: treatment for 7 days at 10 mg/kg body weight (p.o.)
Experimental: All experiments were conducted between 10.00 hr and 14.00 hr. […] Control animals received equivalent volume of the vehicles CMC (0.3%) solutions only.

[4] = for Body Weight (gm) Day 0 / Feed Intake (gm) Day 0 / Water Intake (ml) Day 0 / Body Weight (gm) Day 7 / Feed Intake (gm) Day 7 / Water Intake (ml) Day 7: cyclophosphamide 250 mg/kg i.p. alone; for feed intake compared to vehicle control: 3,8-(OH)2-DBP 50 mg/kg
Experimental: (§3) Male and female Swiss albino mice (n=8; 4 from each gender) weighing approximately 25±5 g, were obtained from National Research Institute of Ayurveda for Drug Development (Govt. of India), Kolkata, and were housed in polypropylene cages at 22±3° C., relative air humidity of 45 to 55%, with 12.00 h light & dark cycle (lighting on from 6:00 AM to 6:00 PM). […] The mice were acclimatized for one week in the laboratory conditions, before being used in the experiment. All experiments were conducted between 10.00 h and 14.00 h. Principles of laboratory animal care (NIH publication no. 85-23, revised 1985) was followed.
(§4) Cyclophosphamide was dissolved in distilled water and the mice were administered a single exposure (250 mg/kg, i.p.) on day 1.
(§5) 3-OH-DBP, 3,8-(OH)2-DBP, and combined 3-OH-DBP+3,8-(OH)2-DBP were administered once daily for 7 days starting from day 1. Following 7 days of treatment the mice were anaesthetized and sacrificed under anaesthesia followed by collection of peritoneal macrophages and spleen (for splenocyte isolation).
(§6) Swiss albino mice were randomly divided into 8 Groups (n=8; 4 from each gender). […] (2:10) (12 mg/kg b.w., p.o.), Group VI mice were administered 3-OH-DBP (10 mg/kg b.w., p.o.), Group VII mice were administered 3,8-(OH)2-DBP (50 mg/kg b.w., p.o.), Group VIII mice were administered [3-OH-DBP+3,8-(OH)2-DBP] (10:50) (60 mg/kg b.w., p.o.).
(§7) Results were expressed in terms of mean±SEM (n=8; 4 from each gender). Data were subjected to one way ANOVA followed by Tukey's test using GraphPad Prism 4.0 software to establish statistical significance (*p<0.05, **p<0.01, ***p<0.001, where * refers to comparison with Group I vehicle control; #p<0.05, ##p<0.01, ###p<0.001, where #refers to comparison with Group II cyclophosphamide administration; ^ap<0.05, ^aap<0.01, ^aap<0.01, where a refers to comparison of Day 7 with Day 0).

[5] = test system: peritoneal macrophages; assay: Peritoneal macrophage viability, trypan blue exclusion (Example III); type: in vivo, Swiss albino mice; details: for % Viability Day 7, peritoneal macrophage viability: cyclophosphamide 250 mg/kg i.p. alone
Experimental: as §3, §4, §5, §6
(§8) All the animals were sacrificed under ether anesthesia and peritoneal macrophages were lavaged using ice cold phosphate buffer saline (PBS: 0.15 M NaCl; pH: 7.4). After centrifugation (3000 rpm×10 min) at 4° C., pellets were re-suspended in PBS and cell viability was confirmed by trypan blue exclusion assay.
as §7

[6] = test system: peritoneal macrophages; assay: NBT reduction of peritoneal macrophages (Example III); type: in vivo, Swiss albino mice; details: for NBT reduction compared with vehicle control: cyclophosphamide, 3-OH-DBP 2 and 10 mg/kg, combined 12 mg/kg
Experimental: as §3, §4, §5, §6, §8
Preparation of NBT solution: 0.2% NBT (nitroblue tetrazolium) in PBS (pH 7.4), 5% dextrose and HBSS. These three solutions were mixed in 6:2:4 ratios.
0.5 ml of NBT solution was added to 0.5 ml of peritoneal macrophages (1×10^6 cells/ml) in micro-centrifuge tube. This mixture was incubated at 37° C. for 2 hours. The cell suspension was centrifuged at 2000 rpm for 10 minutes. Supernatants were discarded and pellets were re-suspended in 1 ml of DMSO. The tubes were kept in boiling water bath for 10 minutes and then cooled and centrifuged at 2000 rpm for 10 minutes. The supernatants were collected and absorbance was measured at 515 nm.
as §7

[7] = test system: splenocytes; assay: Splenocyte viability, trypan blue exclusion (Example III); type: in vivo, Swiss albino mice; details: for % Viability Day7, splenocyte viability: Day 7, cyclophosphamide 250 mg/kg i.p. alone
Experimental: as §3, §4, §5, §6
Spleens were collected and single cell suspension was prepared by mincing and tapping the spleen fragments on stainless steel 200-mesh in ice cold phosphate buffer saline (PBS: 0.15M NaCl; pH: 7.4). Cell suspensions were centrifuged at 2000 rpm for 10 minutes.
as §7

[8] = 10 mg/kg body weight p.o. 7 days + cyclophosphamide 250 mg/kg i.p.
[9] = cyclophosphamide 250 mg/kg i.p. day one, alone, day 7
[10] = female mice, cyclophosphamide alone

O=c1oc2cc(OC3OC(CO)C(O)C(O)C3O)ccc2c2ccc(OC3OC(CO)C(O)C(O)C3O)cc12 [3,8-(OH)2-DBP glycoside, 3,8-di-(O-D-Glucopyranosyl)-Dibenzo-alpha-pyrone]
OD (515 nm), NBT reduction assay in peritoneal macrophages [1, 8]: 0.153 ± 0.013
improvement in NBT reduction capacity [1]: moderate (p<0.05) improvement
% Cell Viability of splenocytes [2, 8]: 58.58 ± 4.49%
Cyclophosphamide-induced immunosuppression (conclusion) [3]: rescued

O=c1oc2cc(OC3OC(CO)C(O)C(O)C3O)ccc2c2ccccc12 [3-OH-DBP glycoside, 3-O-D-Glucopyranosyl-Dibenzo-alpha-pyrone]
OD (515 nm), NBT reduction assay in peritoneal macrophages [1, 8]: 0.168 ± 0.014
improvement in NBT reduction capacity [1]: highest level of improvement
% Cell Viability of splenocytes [2, 8]: 60.39 ± 5.85 %
improvement in splenocyte viability ([2]; 10 mg/kg p.o. in cyclophosphamide-treated mice): significant improvement
Cyclophosphamide-induced immunosuppression (conclusion) [3]: rescued

O=P1(N(CCCl)CCCl)NCCCO1 (stereo not shown) [Cyclophosphamide, reference compound]
OD (515 nm), NBT reduction assay in peritoneal macrophages [1, 9]: 0.117 ± 0.015
NBT reduction capacity of peritoneal macrophages ([1]; cyclophosphamide alone vs CMC control): significant (p<0.001) decrease
% Cell Viability of splenocytes [2, 9]: 51.12 ± 4.69 %
splenocyte viability ([2]; cyclophosphamide alone vs control): significantly (p<0.01) decreased
Body Weight (gm) Day 0 ([4]; female mice): 23.00 ± 1.89 gm
Feed Intake (gm) Day 0 ([4]; female mice): 28.50 ± 0.96 gm
Water Intake (ml) Day 0 ([4]; female mice): 3.620 ± 0.16 mL
Body Weight (gm) Day 7 ([4]; female mice): 21.75 ± 0.63 gm
Feed Intake (gm) Day 7 ([4]; female mice): 24.71 ± 0.41^a gm
Water Intake (ml) Day 7 ([4]; female mice): 6.425 ± 0.48 mL
feed intake compared to vehicle control ([4]; female mice, cyclophosphamide, 3-OH-DBP 10 mg/kg): significantly (p<0.05, p<0.01) decreased
Body Weight (gm) Day 0 ([4]; male mice): 30.75 ± 1.89 gm
Feed Intake (gm) Day 0 ([4]; male mice): 28.50 ± 0.96 gm
Water Intake (ml) Day 0 ([4]; male mice): 6.125 ± 0.16 mL
Body Weight (gm) Day 7 ([4]; male mice): 30.50 ± 2.18 gm
Feed Intake (gm) Day 7 ([4]; male mice): 26.81 ± 0.86^a gm
Water Intake (ml) Day 7 ([4]; male mice): 5.863 ± 0.15*,## ml
feed intake compared to vehicle control ([4]; male mice, cyclophosphamide, 3-OH-DBP 10 mg/kg): significantly (p<0.05, p<0.01) decreased
feed intake Day 7 in comparison to Day 0 ([4]; male mice, cyclophosphamide, 3-OH-DBP 10 mg/kg, 3,8-(OH)2-DBP 10 and 50 mg/kg): significantly (p<0.05, p<0.01) decreased
% Viability Day 7, peritoneal macrophage viability ([5]; female mice): 58.19 ± 0.60** %
peritoneal macrophage viability compared with vehicle control [5, 10]: significantly (p<0.05) decreased
% Viability Day 7, peritoneal macrophage viability ([5]; male mice): 55.72 ± 2.18* %
peritoneal macrophage viability compared with vehicle control ([5]; male mice, cyclophosphamide, 3-OH-DBP 2 mg/kg, 3,8-(OH)2-DBP 10 mg/kg): significantly (p<0.05) decreased
O.D. (515 nm) Day 7, NBT reduction of peritoneal macrophages ([6]; female mice, Day 7, cyclophosphamide 250 mg/kg i.p. alone): 0.119 ± 0.005***
NBT reduction compared with vehicle control ([6]; female mice, 3,8-(OH)2-DBP 10 and 50 mg/kg): significantly (p<0.05, p<0.01, p<0.001) decreased
O.D (515 nm) Day 7, NBT reduction of peritoneal macrophages ([6]; male mice, Day 7, cyclophosphamide 250 mg/kg i.p. alone): 0.209 ± 0.02419***
NBT reduction compared with vehicle control ([6]; male mice, 3,8-(OH)2-DBP 10 mg/kg): significantly (p<0.01, p<0.001) decreased
% Viability Day7, splenocyte viability ([7]; female mice): 79.70 ± 1.58*** %
splenocyte viability compared with vehicle control [7, 10]: significantly (p<0.001) decreased
% Viability Day7, splenocyte viability ([7]; male mice): 70.22 ± 0.98*** %
splenocyte viability compared with vehicle control ([7]; male mice, cyclophosphamide, 2 mg/kg 3-OH-DBP, 10 mg/kg 3,8-(OH)2-DBP, 12 mg/kg combined): significantly (p<0.001) decreased
